Laboratory results published in publication PMC6271395, “Synthesis and Biological Activities of Some New (N^α-Dinicotinoyl)-bis-L-Leucyl Linear and Macrocyclic Peptides” (Molecules, 2014).

How the values were obtained:
[1] = tested on: Staphylococcus aureus; experiment: Agar diffusion antimicrobial test, Staphylococcus aureus; format: cell-based; details: Gram+ve, modified Kirby–Bauer disk diffusion, 10 µg/mL
Procedure: (§1) The newly synthesized compounds 3–12 were tested for their preliminary antimicrobial activity against different microorganisms representing Gram-positive (Bacillus subtilis, Bacillus aureus and Staphylococcus aureus), Gram-negative bacteria (Escherichia coli), yeast (Candida albican) and fungi (Aspergillus niger).
(§2) The antimicrobial activities of the synthesized compounds were determined by the agar diffusion method as recommended by the national committee for clinical laboratory standards (NCCLS). The concentrations of the tested compounds (10 µg/mL) were used according to modified Kirby–Bauer’s disk diffusion method. The degree of inhibition is measured in comparison with that of chloramphinicol and fusidic acid taken as standards.

[2] = tested on: Escherichia coli; experiment: Agar diffusion antimicrobial test, Escherichia coli; format: cell-based; details: Gram−ve, modified Kirby–Bauer disk diffusion, 10 µg/mL
Procedure: as §1, §2

[3] = tested on: Bacillus subtilis; experiment: Agar diffusion antimicrobial test, Bacillus subtilis; format: cell-based; details: Gram+ve, modified Kirby–Bauer disk diffusion, 10 µg/mL
Procedure: as §1, §2

[4] = tested on: Bacillus aureus; experiment: Agar diffusion antimicrobial test, Bacillus aureus; format: cell-based; details: Gram+ve, modified Kirby–Bauer disk diffusion, 10 µg/mL
Procedure: as §1, §2

[5] = tested on: Aspergillus niger; experiment: Agar diffusion antimicrobial test, Aspergillus niger; format: cell-based; details: Fungi, modified Kirby–Bauer disk diffusion, 10 µg/mL
Procedure: as §1, §2

[6] = tested on: plasma PGE2; experiment: Inhibition of plasma PGE2 (EIA) in carrageenan-challenged rats; format: in vivo, rat; details: rats n = 8, blood four hours after drug administration, PGE2 EIA kit
Procedure: (§3) For the determination of the antiphlogistic potency of the synthesized compounds, two standard tests were realized at a dose level 2.5 and 5 mg/kg body weight of the rats, namely the protection against carrageenan-induced edema according to Winter et al. and the inhibition of plasma PGE2. The latter is known as a good confirming indicator for carrageenan-induced rat paw edema. […] For these compounds, a similar activity profile was realized for the inhibition of plasma PGE2.
(§4) Groups of adult male albino rats (150–180 g), each of eight animals were orally dosed with tested compounds at a dose level of 2.5–5 mg/kg one hour before carrageenan challenge. Foot paw edema was induced by subplantar injection of 0.05 cm^3 of a 1% suspension of carrageenan in saline into the plantar tissue of one hind paw. An equal volume of saline was injected to the other hand paw and served as control. Four hours after drug administration the animals were decapitated, blood was collected, and the paws were rapidly excised. The average weight of edema was examined for the treated as well as the control group and the percentage inhibition of weight of edema was also evaluated. Diclofenac potassium (5 mg/kg) was employed as standard reference against which the tested compounds were compared (Table 2).
Heparinized blood samples were collected from rats (n = 8), plasma was separated by centrifugation at 12,000 g for 2 min at […], immediately frozen, and stored at […] until use. The design correlate EIA prostaglandin E2 (PGE2) kit (Aldrich, Steinheim, Germany) is a competitive immuno assay for the quantitative determination of PGE2 in biological fluids. The kit uses a monoclonal antibody to PGE2 to bind, in a competitive manner, the PGE2 in the sample after a simultaneous incubation at room temperature. The excess reagents were washed away and the substrate was added, after a short incubation time the enzyme reaction was stopped, and the yellow color generated was read on a microplate reader DYNATech, MR 5000 at 405 nm (Dynatech Industries Inc., McLean, VA, USA). The intensity of the bound yellow color is inversely proportional to the concentration of PGE2 in either standard or samples.

[7] = tested on: carrageenan-induced edema; experiment: Carrageenan-induced edema (rat paw test); format: in vivo; details: one hour before carrageenan, male albino rats, eight animals per group, paws excised four hours after drug administration
Procedure: as §3, §4

[8] = tested on: Candida albicans; experiment: Agar diffusion antimicrobial test, Candida albicans; format: cell-based; details: Yeast, modified Kirby–Bauer disk diffusion, 10 µg/mL
Procedure: as §1, §2

Compound | Inhibition Zome, Staphylococcus aureus [1] | Inhibition Zome, Escherichia coli [2] | Inhibition Zome, Bacillus subtilis [3] | Inhibition Zome, Bacillus aureus [4] | Inhibition Zome, Aspergillus niger [5] | % Inhibition of Plasma PGE2 ([6]; dose 2.5 mg/kg oral) | % Inhibition of Plasma PGE2 ([6]; dose 5.0 mg/kg oral) | % Protection against Edema ([7]; dose 2.5 mg/kg oral) | % Protection against Edema ([7]; dose 5.0 mg/kg oral) | Inhibition Zome, Candida albicans [8]
CC(C)C[C@H](NC(=O)c1cncc(C(=O)N[C@@H](CC(C)C)C(=O)N/N=C/c2ccccc2)c1)C(=O)N/N=C/c1ccccc1 [Compound 10a] | 1.56 cm | 0.66 cm | 1.56 cm | 1.45 cm | 1.68 cm | 62.12 ± 0.051% | 83.01 ± 0.049% | 90.32 ± 0.035% | 99.10 ± 0.036% | –
2,6-Bis[(N-[4-methyl-1-(4,5,6,7-tetrachloro-1H-isoindole-1,3(2H)-dion)-pentan]-3-carboxamido]-pyridine [Compound 7b] | 1.45 cm | 0.66 cm | 1.46 cm | 1.80 cm | 1.95 cm | – | – | – | – | –
2,6-Bis {N-{(2R)-1-[2-(4-methylbenzylidene)hydrazinyl]-4-methyl-1-oxopentan]-3-carboxamido}-pyridine [Compound 10b] | 1.85 cm | 0.78 cm | 1.80 cm | 1.95 cm | 1.56 cm | – | – | – | – | 0.95 cm
COC(=O)[C@H](CC(C)C)NC(=O)c1cncc(C(=O)N[C@@H](CC(C)C)C(=O)OC)c1 [Compound 3, 3,5-Bis-(Methyl L-Leucenylcarbonyl)pyridine carboxylate] | 1.76 cm | 0.62 cm | 1.46 cm | 1.65 cm | 1.78 cm | 59.45 ± 0.050% | 81.10 ± 0.056% | 86.16 ± 0.052% | 98.18 ± 0.053% | –
COc1ccc(/C(C)=N/NC(=O)[C@H](CC(C)C)NC(=O)c2cncc(C(=O)N[C@@H](CC(C)C)C(=O)N/N=C(\C)c3ccc(OC)cc3)c2)cc1 [Compound 9b] | 1.72 cm | 0.75 cm | 1.60 cm | 1.74 cm | 1.88 cm | 57.90 ± 0.040% | 77.14 ± 0.052% | 79.34 ± 0.081% | 92.92 ± 0.090% | 1.00 cm
C/C(=N\NC(=O)[C@H](CC(C)C)NC(=O)c1cncc(C(=O)N[C@@H](CC(C)C)C(=O)N/N=C(\C)c2ccc(Cl)cc2)c1)c1ccc(Cl)cc1 [Compound 9a] | 1.76 cm | 0.92 cm | 1.84 cm | 1.88 cm | 2.01 cm | 58.96 ± 0.024% | 74.58 ± 0.040% | 82.16 ± 0.076% | 93.16 ± 0.064% | 1.10 cm
O=C([O-])Cc1ccccc1Nc1c(Cl)cccc1Cl.[K+] [Diclofenac Potassium, reference compound] | – | – | – | – | – | 54.00 ± 0.041% | 70.00 ± 0.051% | 70.14 ± 0.064% | 75.23 ± 0.083% | –
COC(=O)[C@@H]1CCCCNC(=O)[C@H](CC(C)C)NC(=O)c2cncc(c2)C(=O)N[C@@H](CC(C)C)C(=O)N1 [Compound 6, Cyclo-(Na-dinicotinoyl)-bis-(L-leucyl)-L-lysine methyl ester] | 1.54 cm | 0.65 cm | 1.82 cm | 1.50 cm | 1.75 cm | 84.18 ± 0.052% | 86.01 ± 0.030% | 92.14 ± 0.076% | 99.08 ± 0.062% | –
CC(C)C[C@H](NC(=O)c1cncc(C(=O)N[C@@H](CC(C)C)C(=O)O)c1)C(=O)O [Compound 5, N,N′-Bis(1-Carboxy-2-L-leucyl)-3,5-(diaminocarbonyl)pyridine] | 1.76 cm | 0.64 cm | 1.68 cm | 1.14 cm | 1.72 cm | 61.16 ± 0.041% | 77.14 ± 0.036% | 85.14 ± 0.056% | 96.18 ± 0.067% | –
CC(C)C[C@@H]1NC(=O)c2cncc(c2)C(=O)N[C@@H](CC(C)C)C(=O)NN2C(=O)c3ccc4c5c(ccc(c35)C2=O)C(=O)N(NC(=O)[C@H](CC(C)C)NC(=O)c2cncc(c2)C(=O)N[C@@H](CC(C)C)C(=O)NN2C(=O)c3ccc5c6c(ccc(c36)C2=O)C(=O)N(NC1=O)C5=O)C4=O [Compound 12] | 1.65 cm | 0.64 cm | 1.65 cm | 1.83 cm | 1.58 cm | 63.16 ± 0.036% | 86.18 ± 0.071% | 90.48 ± 0.090% | 99.36 ± 0.080% | –
2,6-Bis {N-{(2R)-1-[2-(4-chlorobenzylidene)hydrazinyl]-4-methyl-1-oxopentan]-3-carboxamido}-pyridine [Compound 10e] | 1.80 cm | 0.78 cm | 1.65 cm | 1.96 cm | 1.48 cm | – | – | – | – | 0.94 cm
2,6-Bis {N-{(2R)-1-[2-(4-methoxybenzylidene)hydrazinyl]-4-methyl-1-oxopentan]-3-carboxamido}-pyridine [Compound 10c] | 1.64 cm | 0.80 cm | 1.76 cm | 1.56 cm | 1.95 cm | – | – | – | – | 1.00 cm
CC(=O)O[C@H]1C[C@@]2(C)[C@@H](C[C@@H](O)[C@H]3[C@@]4(C)CC[C@@H](O)[C@@H](C)[C@@H]4CC[C@@]32C)/C1=C(\CCC=C(C)C)C(=O)O [Fusidic Acid, reference compound] | – | – | – | – | 1.9 cm | – | – | – | – | 1.9 cm
2,6-Bis {N-[1-{(2E)-2-[1-(4-nitrophenyl)ethylidene]hydrazinyl}-4-methyl-1-oxopentan]-3-carboxamido}pyridine [Compound 9c] | 1.66 cm | 0.60 cm | 1.72 cm | 1.22 cm | 1.76 cm | – | – | – | – | –
O=C(N[C@H](CO)[C@H](O)c1ccc([N+](=O)[O-])cc1)C(Cl)Cl [Chloramphenicol, reference compound] | 2.00 cm | 0.95 cm | 2.00 cm | 2.10 cm | – | – | – | – | – | –
